# Test results taken from US10208007B2, “Use of strigolactones and strigolactone analogs for treating proliferative conditions” (The State of Israel, Ministry of Agriculture & Rural …, priority 2011, dated 2019).
# Read-outs that look alike come from different tables or passages of the source.
# Key:
# Type in all cases: cell-based, human
# [1] = system: DU145; assay: Cell cycle analysis with strigolactone removal; settings: for G2/M fraction: 24 hours, from 18%; for G2/M fraction 48 hours following removal: vehicle control 28.5%
# Method: Adherent cells were trypsinyzed, washed twice with PBS and filtered through a […] cell sieve. DNA content was assessed by flow cytometry. Cells were seeded at densities of 1.5×10^5 cells (MDA-MB-231, MDA-MB-436), or 4×10^5 cells (MCF-7 and MCF10A), or 2×10^5 cells (SW480, HT-29), or 5×10^5 cells (HCT116), per well in DMEM with 10% FBS in 6-well plate culture dishes. […] After 48 hours, cells were washed twice with PBS (pH 7.4), centrifuged at 360 g for 10 minutes at 4° C., and fixed in chilled ethanol (70%; v/v in PBS) with gentle vortex mixing. To determine their DNA contents, the cells were stained with 40 μg/ml propidium iodide (hereinafter PI) and analyzed using a FACSCalibur flow cytometer and CellQuest analysis software (Becton Dickinson, San Jose, Calif.). Where phosphoHistone-H3 staining was carried out, cells were incubated with polyclonal antibody against phosphoHistone H3 and then with secondary Goat anti-rabbit IgG-conjugated to FITC prior to PI staining.
# To determine whether the strigolactone analogs induced G2 arrest, is also reversible upon strigolactone removal, DU145 cells were treated with MEB-55 for 24 hours, washed twice in PBS and then over-layed with fresh growth media minus MEB-55 and incubated for a further 48 hours (FIG. 17G).
# [2] = system: pERK1/2; assay: Immunoblot with densitometric quantification; settings: DU145, after 1 hour
# Method: (§1) Protein concentration was determined using the BCA Protein Assay (Pierce), and 20-50 μg of lysate were separated in a 4-12% SDS-PAGE gel. After transfer, membranes were blocked for 15-30 min at room temperature in 5% BSA (Sigma) in Tris-buffered saline containing 0.1% Tween-20. Primary antibody was incubated for either 1.5 hours at room temperature or overnight at 4° C. Secondary antibody was incubated for 30-45 min at room temperature, and proteins were visualized with West Pico Stable (Pierce). All antibodies were used at 1:1000 dilution unless otherwise stated. pT308AKT, AKT, pT180/Y182, pT183/Y185 P38MAPK, pP38MAPK, pT202/Y204 pERK1/2, ERK1, pT183/Y185, pJNK1/2, JNK1, pT71ATF2, pT581MSK1, pT14 Cdc2, Cdc2, pT68Chk2 (cell signaling), pT334MAPKAPK, pS82HSP27 (Cell Signaling Technology, Danvers, Mass.), α-tubulin (Biomarkers, 1:50,000), Cyclin B1 (Santa Cruz Biotechnologies) and horseradish peroxidase-conjugated anti-rabbit IgG and anti-mouse IgG (1:5,000, Pierce).
# (§2) Densitometric quantifications were carried out using ImageJ software (NIMH).
# (§3) To investigate the signaling mechanisms elicited by strigolactone analogs in cancer cells, MDA-MB-231, DU145 and HCT116 cells were treated with strigolactone analogs for 1, 4 or 8 hours and lysates were analyzed by immuno-blotting. The family of MAPK enzymes plays a pivotal role in cell growth, survival and cellular stress responses. The best characterized MAPKs fall into three families: (i) the mitogen activated extracellular signal regulated kinases (ERK1/2) which are activated in response to positive proliferation signals, (ii) c-Jun amino (N)-terminal kinases (JNK1/2/3) and (iii) p38 isoforms (p38α, β, γ, δ), all are activated by environmental stress stimuli such as DNA damage, UV irradiation and inflammatory cytokines.
# [3] = system: JNK1/2 phosphorylation; assay: Immunoblot with densitometric quantification
# Method: as §1, §2, §3
# [4] = system: MDA-MB-436; assay: Crystal violet monolayer growth assay; settings: for IC50: after 7 days, read-out: IC50 of long-term proliferation
# Method: (§4) Cells were seeded at 1500 (MDA-MB-231, MDA-MB-436 and BJ fibroblasts) or 4000 cells per well of 96 well plates. […] At the indicated time points, individual plates were fixed and stained with crystal violet-methanol solution (50 μl per well) for 15 minutes, washed several times with distilled water and plates were air dried overnight. Sodium citrate solution (0.1M) was used to solubilize bound crystal violet and optical densities were measured at 560 nm (Glomax®-Multi Detection plate reader, Promega).
# (§5) Cells (MDA-MB-231, MDA-MB-436 and BJ fibroblasts) were seeded at 1500 or 4000 cells per well of 96 well plates. […] At the indicated time points, individual plates were fixed and stained with crystal violet solution (0.5% crystal violet and 25% methanol) for 15 min, washed several times in distilled water and air dried overnight. Sodium citrate solution (0.1M) was used to solubilize bound crystal violet and optimal densities were measured at 560 nm (Glomax®—Multi Detection plate reader, Promega).
# (§6) The effect of GR-24 (FIG. 3) on long-term cancer cell line growth was assessed by crystal violet assay. MCF-7 (estrogen receptor positive (ER+), tumorigenic, nonmetastatic), (A) MDA-MB-231, MDA-MB-436 (ER negative (−), metastatic) and BJ fibroblasts (normal, non-neoplastic line) were treated with GR-24 at a dose range of 0.5 to 10 ppm (1.65-33 μM). Growth was monitored for up to 10 days. At the indicated time points, plates were stained with crystal violet. Data are reported as the Percent Absorbance (560 nm) of vehicle control. Average±standard deviations (SD). Student's t-test (2-tailed, paired) was used to evaluate GR-24 treated groups with vehicle (control) groups at final time point and regarded as being significant if p<0.05 (*), very significant if p<0.01 (**), extremely significant if p<0.001 (***). (B) Is a graph showing the light absorbance reading (560 nm) after 7 days exposure to the indicated doses of GR-24. Data expressed as a percentage of vehicle controls. Average of triplicate samples+SD. Horizontal line (---) marks 50% reduction in Absorbance (560 nm) relative to vehicle controls.
# [5] = system: MDA-MB-231; assay: Crystal violet monolayer growth assay; settings: for IC50: after 7 days, read-out: IC50 of long-term proliferation
# Method: as §4, §5, §6
# [6] = system: BJ fibroblasts; assay: Crystal violet monolayer growth assay; settings: up to 10 ppm, up to 10 days
# Method: as §4, §5, §6
# [7] = system: MCF-7; assay: Crystal violet monolayer growth assay
# Method: as §4, §5, §6
SMILES,"G2/M fraction ([1]; DU145, 5 ppm) [%]","G2/M fraction 48 hours following removal ([1]; DU145, 5 ppm) [%]","G2/M fraction ([1]; DU145, 10 ppm) [%]","G2/M fraction 48 hours following removal ([1]; DU145, 10 ppm) [%]",pERK1/2 levels reduction [2] [fold],"JNK1/2 phosphorylation increase ([3]; DU145, 4 hours) [fold]","Decrease of JNK1/2 phosphorylation from the 4 hours level ([3]; DU145, 8 hours) [%]","IC50 ([4]; Homo sapiens, MDA-MB-436, 168 h) [µM]",IC50 [4] [µM],Concentrations resulting in a significant reduction in growth compared to vehicle ([4]; up to 10 days),"IC50 ([5]; Homo sapiens, MDA-MB-231, 168 h) [µM]",IC50 [5] [µM],Concentrations resulting in a significant reduction in growth compared to vehicle ([5]; up to 10 days),Growth compared to vehicle [6],"IC50 ([7]; Homo sapiens, MCF7, 168 h, after 7 days, read-out: IC50 of long-term proliferation) [µM]",IC50 of long-term proliferation ([7]; after 7 days) [ppm],Concentrations resulting in a significant reduction in growth compared to vehicle ([7]; up to 10 days)
"CC1=CC(O/C=C2\Cc3c(n(C)c4cc(-c5cccs5)ccc34)C2=O)OC1=O (racemic) [MEB-55, (±) 2E-4-methyl-2-(4-methyl-5-oxo-2,5-dihydrofuran-2-yloxymethylene)-6-thiophen-2-yl-1,4-dihydro-2H-cyclopenta[b]indol-3-one]",46,29,50,29,4,15,50,,,,,,,,,,
"CC1=C[C@H](O/C=C2/C(=O)O[C@@H]3c4ccccc4C[C@H]23)OC1=O (relative stereo) [GR-24, (3aR*,8bS*,E)-3-(((R*)-4-methyl-5-oxo-2,5-dihydrofuran-2-yloxy)methylene)-3,3a,4,8b-tetrahydro-2H-indeno[1,2-b]furan-2-one]",,,,,,,,18.8,17.2,2.5-5 ppm,22.1,18.8,2.5-5 ppm,no significant reduction in growth,18.8,5.7,2.5-5 ppm
